# Results reported in patent US6686382B2, “Sulfonamides and derivatives thereof that modulate the activity of endothelin” (Encysive Pharmaceuticals Inc., priority 1999, dated 2004).
# Read-outs that look alike come from different tables or passages of the source.
# How the values were obtained:
# human ETA receptors = target: T1, human ETA receptors (Homo sapiens, UniProt P25101); experiment: Endothelin binding inhibition, Binding Test #1: inhibition of binding to ETA receptors (TE 671 cell membranes); details: relative to N-(4-chloro-3-methyl-5-isoxazolyl)-2-{[3,4-(methylenedioxy)-6-methylphenyl)acetyl]-thiophene-3-sulfonamide (= 1.0)
# T1 construct: endogenous in cells; host or cells: TE 671 cells (ATCC HTB 139), membrane preparation
# T1 sequence (P25101 21-427): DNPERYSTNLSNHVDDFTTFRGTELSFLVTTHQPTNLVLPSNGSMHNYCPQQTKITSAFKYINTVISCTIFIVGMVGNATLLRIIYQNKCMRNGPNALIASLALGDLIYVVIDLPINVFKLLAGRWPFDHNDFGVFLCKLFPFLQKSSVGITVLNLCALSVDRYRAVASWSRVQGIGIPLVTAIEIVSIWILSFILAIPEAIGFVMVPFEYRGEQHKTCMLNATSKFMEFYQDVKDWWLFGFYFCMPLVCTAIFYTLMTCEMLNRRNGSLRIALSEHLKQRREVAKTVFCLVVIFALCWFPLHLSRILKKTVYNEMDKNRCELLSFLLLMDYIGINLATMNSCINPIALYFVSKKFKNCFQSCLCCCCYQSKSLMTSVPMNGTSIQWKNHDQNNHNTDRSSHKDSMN
# Description: (§1) Compounds that are potential endothelin antagonists are identified by testing their ability to compete with ^125I-labeled ET-1 for binding to human ETA receptors or ETB receptors present on isolated cell membranes. The effectiveness of the test compound as an antagonist or agonist of the biological tissue response of endothelin can also be assessed by measuring the effect on endothelin induced contraction of isolated rat thoracic aortic rings. The ability of the compounds to act as antagonists or agonists for ETB receptors can be assess by testing the ability of the compounds are to inhibit endothelin-1 induced prostacyclin release from cultured bovine aortic endothelial cells.
# (§2) A. Endothelin Binding Inhibition—Binding Test #1: Inhibition of Binding to ETA Receptors
# (§3) TE 671 cells (ATCC Accession No. HTB 139) express ETA receptors. These cells were grown to confluence in T-175 flasks. Cells from multiple flasks were collected by scraping, pooled and centrifugedfor 10 min at 190×g. The cells were resuspended in phosphate buffered saline (PBS) containing 10 mM EDTA using a Tenbroeck homogenizer. The suspension was centrifuged at 4° C. at 57,800×g for 15 min, the pellet was resuspended in 5 ml of buffer A (5 mM HEPES buffer, pH 7.4 containing aprotinin (100 KIU/ml)) and then frozen and thawed once. 5 ml of Buffer B (5 mM HEPES Buffer, pH 7.4 containing 10 mM MnCl2 and 0.001% deoxyribonuclease Type 1) was added, the suspension mixed by inversion and then incubated at 37° C. for 30 minutes. The mixture was centrifuged at 57,800×g as described above, the pellet washed twice with buffer A and then resuspended in buffer C (30 mM HEPES buffer, pH 7.4 containing aprotinin (100 KIU/ml) to give a final protein concentration of 2 mg/ml and stored at −70° C. until use.
# (§4) The membrane suspension was diluted with binding buffer (30 mM HEPES buffer, pH 7.4 containing 150 mM NaCl, 5 mM MgCl2, 0.5% Bacitracin) to a concentration of 8 μg/50 μl. ^125I-endothelin-1 (3,000 cpm, […]) was added to 50 μL of either: (A) endothelin-1 (for non specific binding) to give a final concentration 80 nM); (B) binding buffer (for total binding); or (C) a test compound (final concentration 1 nM to 100 μM). The membrane suspension (50 μL), containing up to 8 μg of membrane protein, was added to each of (A), (B), or (C). Mixtures were shaken, and incubated at 4° C. for 16-18 hours, and then centrifuged at 4° C. for 25 min at 2,500×g. Alternatively, the incubation was conducted at 24° C. […] This, must be kept in mind when comparing IC50 concentrations among compounds provided herein.
# (§5) The supernatant, containing unbound radioactivity, was decanted and the pellet counted on a Genesys multiwell gamma counter. The degree of inhibition of binding (D) was calculated according to the following equation: [formula]
# Each test was generally performed in triplicate.
# [1] = test system: ETA receptors and ETB receptors; experiment: Endothelin binding inhibition, ETA (TE 671) and ETB (transfected COS7) receptors: selectivity; set-up: species or system human; details: antagonism of ETA receptors over ETB receptors
# Description: as §1, §2, §3, §4, §5
# B. Endothelin Binding Inhibition—Binding Test #2: Inhibition of Binding to ETB Receptors
# COS7 cells were transfected with DNA encoding the ETB receptor, The resulting cells, which express the human ETB receptor, were grown to confluence in T-150 flasks. Membrane was prepared as described above. The binding assay was performed as described above using the membrane preparation diluted with binding buffer to a concentration of 1 μg/50 μl.
# Briefly, the COS7 cells, described above, that had been transfected with DNA encoding the ETB receptor and express the human ETB receptor on their surfaces were grown to confluence in T-175 flasks. […]
# [2] = Pharmacokinetic properties (oral availability, elimination half-life, Cmax); format: in vivo
# Description: As used herein, bioavailability or oral availability refers to the rate and extent of absorption. Methods for determining bioavailability or oral availability are well known to those of skill in the art. For example, bioavailability or oral availability of any of the compounds described herein can be determined empirically by administration of the compound to an animal, followed by taking blood samples over time and measuring the blood concentration of the compound. In vivo half life (t1/2) is defined as the time it takes for the concentration of the compound in the blood to be reduced by one-half. Estimations of the area under the curve for intravenous administration can be used to estimate the area under the curve for oral administration, yielding bioavailability data. See, e.g., Milo Gibal (1991) Biopharmaceutics and Pharmacology, 4th edition (Lea and Sediger).
# ETA receptor = details: read-out: IC50, inhibition of 125I-labelled endothelin-1 binding, cited from earlier work
# ETB receptors = details: concentrations up to 100 μM; cited from earlier work
# isolated vascular strips = details: read-out: EC50, contractile agent; cited from earlier work
compound,measurement,setting,value
"Cc1cc(C)c(NC(=O)c2sccc2S(=O)(=O)Nc2onc(C)c2Cl)c(-c2ncco2)c1 [Compound 44, 3-{[(4-chloro-3-methyl-5-isoxazolyl)amino]sulfonyl}-N-[2,4-dimethyl-6-(1,3-oxazol-2-yl)phenyl]-2-thiophenecarboxamide]",ETA ACTIVITY (ETA antagonist activity relative to reference compound),human ETA receptors,17.9
same,Selectivity (IC50 for ETB/IC50 for ETA),[1],"119,000"
same,half-life,"[2]; blood, read-out: t½ elim. (converted)",5.3 h
same,Cmax,[2]; in vivo,66 µg/mL
same,melting point,,176 to 178 °C
cyclo(D-Glu-L-Ala-allo-D-Ile-L-Leu-D-Trp) [BE-18257B],IC50,ETA receptor; aortic smooth muscle,1400 nM
same,IC50,ETA receptor; cultured aortic smooth muscle cells,500 nM
same,IC50,ETA receptor; ventricle membranes,800 nM
same,inhibition of binding to receptors in tissues in which ETB receptors predominate,ETB receptors,fails to inhibit binding
endothelin-1: potent twenty-one amino acid peptide vasoconstrictor,EC50,isolated vascular strips,0.4 nM
